Laboratory results reported in US12398125B2, “Nitrogen-containing saturated heterocyclyl derivative” (Sumitomo Pharma Co., Ltd., priority 2022, dated 2025).
Where a name gives a salt, the structure may show the parent alone.

Tested on: α-synuclein aggregate in neurospheroid prepared from human iPS cells with a mutation in PLA2G6 gene
Assay: Test 2: suppressing the accumulation of α-synuclein aggregate with neurospheroid
Format: cell-based
Details: 120 h, DMSO = 100%, compound added day 4, measured day 9 after induction of differentiation; for activity at 0.1 µM: 100 nM, read-out: Amount of aggregate (%) 100 nM; for activity at 1 µM: 1000 nM, read-out: Amount of aggregate (%) 1000 nM
Procedure: Test 2: Evaluation of Suppressing the Accumulation of α-Synuclein Aggregate with Neurospheroid Prepared from Human iPS Cells with a Mutation in PLA2G6 Gene
(1) Induction of Differentiation from Human iPS Cell to Neural Cell
Neural stem cells were induced from PLA2G6 gene mutant iPS cells with PSC Neuronal Induction Medium (Thermo Fisher Scientific Inc., cat #A1647801). Neurospheroid was prepared from the induced neural stem cells by three-dimensional culture system, and preserved with BrainPhys Neuronal Medium (STEMCELL Technologies, cat #ST-05793) comprising NeuroCult SM1 Neuronal Supplement, N2 Supplement-A, 20 ng/mL BDNF, 20 ng/mL GDNF, 1 mM dibutyryl cAMP, and 200 nM ascorbic acid. Half of the culture medium was replaced on day 2 and day 4 after the induction of differentiation.
The test compound was diluted with the culture medium so as to be twice the final concentration, and an equal volume of the twice-concentrated solution was added to each well when half of the culture medium was replaced on day 4 after induction of differentiation.
(2) Evaluation of the Amount of α-Synuclein Aggregate
From the neurospheroid 9 days after the induction of differentiation, proteins were extracted with a TBS solution containing 1% TritionX-100, and the extracted proteins were subjected to a protein analysis with Simple Western system (Protein Simple, Inc., cat #SM-W008) using an α-synuclein antibody (Thermo Fisher Scientific Inc., cat #AHB0261) to measure the amount of the α-synuclein aggregate.
Assuming that the amount of the aggregate in the neurospheroid added with a DMSO solution is 100%, the amount of the aggregate in the neurospheroid added with each test compound was evaluated.

| SMILES | activity at 0.1 µM [%] | activity at 1 µM [%] |
| --- | --- | --- |
| CN1CC(C)(C(=O)N2CCC(c3ccc(C(F)(F)F)nc3)CC2)C1 [Example 41, (1,3-Dimethylazetidin-3-yl){4-[6-(trifluoromethyl)pyridin-3-yl]piperidin-1-yl}methanone hydrochloride] | 57 | 70 |
| CCCN1CC(C)(C(=O)N2CCC(c3ccc(C(F)(F)F)nc3)CC2)C1 [Example 65] | 57 | 80 |
| CC1(C(=O)N2CCC(c3ccc(Cl)nc3)CC2)COC1 [Example 54] | 63 | 35 |
| CCC1(C(=O)N2CCCC(c3ccc(C(F)(F)F)nc3)C2)COC1 (stereo not drawn) [Example 12] | 35 | 12 |
| CC1(C(=O)N2CC(c3ccc(C(F)(F)F)nc3)C2)COC1 [Example 13] | 11 | 7 |
| CC1(C(=O)N2CCC(c3cccnc3C(F)(F)F)CC2)COC1 [Example 4, (3-methyloxetan-3-yl){4-[2-(trifluoromethyl)pyridin-3-yl]piperidin-1-yl}methanone] | 30 | 29 |
| O=C([C@@H]1CCCO1)N1CCC(c2ccc(C(F)(F)F)nc2)CC1 [Example 28] | 23 | 63 |
| CC1(C)COCCN1C(=O)N1CCC(c2ccc(C(F)(F)F)nc2)CC1 [Example 63] | 68 | 58 |
| CC1(C(=O)N2CCCC(c3ccc(C(F)(F)F)nc3)C2)CNC1 (stereo not drawn) [Example 38] | 6 | 4 |
| CC1(C(=O)N2CCC(c3cccnc3C(F)(F)F)CC2)CNC1 [Example 34] | 43 | 127 |
| CC1(C(=O)N2CCC(c3ccnc(C(F)(F)F)n3)CC2)COC1 [Example 58] | 88 | 116 |
| CCC1(C(=O)N2CCC(c3cccnc3C(F)(F)F)CC2)COC1 [Example 7] | 23 | 52 |
| CCC1(C(=O)N2CCC(c3ccc(C(F)(F)F)nc3)C2)COC1 (stereo not drawn) [Example 15] | 23 | 48 |
| CC1(C(=O)N2CCC(O)(c3ccc(C(F)(F)F)nc3)CC2)COC1 [Example 20] | 2 | 91 |
| CCC1(C(=O)N2CC[C@@H](c3ccc(C(F)(F)F)nc3)C[C@@H]2C)COC1 [Example 19] | 5 | 18 |
| O=C([C@H]1CCOC1)N1CCC(c2ccc(C(F)(F)F)nc2)CC1 [Example 25] | 80 | 71 |
| CC1(C(=O)N2CCC(c3cnc(C(F)(F)F)cn3)CC2)COC1 [Example 59] | 100 | 87 |
| O=C(C1CCOCC1)N1CCC(c2ccc(C(F)(F)F)nc2)CC1 [Example 22] | 24 | 50 |
| CCC1(C(=O)N2CC[C@H](c3ccc(C(F)(F)F)nc3)C[C@@H]2C)COC1 [Example 18] | 81 | 80 |
| C[C@H]1C[C@H](c2ccc(C(F)(F)F)nc2)CCN1C(=O)C1(C)COC1 [Example 17] | 28 | 40 |
| CCC1(C(=O)N2CCC(c3cnc(C(F)(F)F)c(F)c3)CC2)COC1 [Example 30] | 16 | 56 |

| SMILES | activity at 0.1 µM [%] | activity at 1 µM [%] |
| --- | --- | --- |
| Cc1ccc(C2CCN(C(=O)C3(C)COC3)CC2)cn1 [Example 55] | 75 | 45 |
| O=C(C1COC1)N1CCC(c2ccc(C(F)(F)F)nc2)CC1 [Example 50] | 86 | 101 |
| O=C([C@H]1CCCO1)N1CCC(c2ccc(C(F)(F)F)nc2)CC1 [Example 27] | 5 | 29 |
| CN1CC(C)(C(=O)N2CCC(c3cnccc3C(F)(F)F)CC2)C1 [Example 43, (1,3-dimethylazetidin-3-yl){4-[4-(trifluoromethyl)pyridin-3-yl]piperidin-1-yl}methanone] | 9 | 11 |
| CC1(C(=O)N2CCC(c3cccnc3C(F)(F)F)CC2)CN(CC(F)(F)F)C1 [Example 66, [3-Methyl-1-(2,2,2-trifluoroethyl)azetidin-3-yl]{4-[2-(trifluoromethyl)pyridin-3-yl]piperidin-1-yl}methanone] | 30 | 77 |
| CCC1(C(=O)N2CCC(c3cnccc3C(F)(F)F)CC2)COC1 [Example 8] | 7 | 13 |
| O=C(N1CCCOCC1)N1CCC(c2ccc(C(F)(F)F)nc2)CC1 [Example 60, (1,4-Oxazepan-4-yl){4-[6-(trifluoromethyl)pyridin-3-yl]piperidin-1-yl}methanone] | 67 | 96 |
| CN1CC(C)(C(=O)N2CCCC(c3ccc(C(F)(F)F)nc3)C2)C1 (stereo not drawn) [Example 46] | 38 | 25 |
| CC1(C(=O)N2CCC(c3ccc(C(F)(F)F)nc3)C2)CNC1 (stereo not drawn) [Example 39] | 92 | 70 |
| CN1CCC(C(=O)N2CCC(c3ccc(C(F)(F)F)nc3)CC2)CC1 [Example 48] | 16 | 21 |
| CC1(C)CC(C(=O)N2CCC(c3ccc(C(F)(F)F)nc3)CC2)CCO1 (stereo not drawn) [Example 51] | 100 | 87 |
| CC(C)c1ccc(C2CCN(C(=O)C3(C)COC3)CC2)cn1 [Example 56] | 30 | 71 |
| CC1(C(=O)N2CCC(c3cnccc3C(F)(F)F)CC2)COC1 [Example 3, (3-methyloxetan-3-yl){4-[4-(trifluoromethyl)pyridin-3-yl]piperidin-1-yl}methanone] | 6 | 10 |
| CC1(C(=O)N2CCC(c3cccnc3C(F)(F)F)CC2)CN(C2CC2)C1 [Example 67, (1-Cyclopropyl-3-methylazetidin-3-yl){4-[2-(trifluoromethyl)pyridin-3-yl]piperidin-1-yl}methanone] | 82 | 64 |
| O=C(N1CCC(c2ccc(C(F)(F)F)nc2)CC1)N1C[C@H]2CC[C@@H](C1)O2 [Example 62] | 81 | 51 |
| CCN1CC(C)(C(=O)N2CCC(c3ccc(C(F)(F)F)nc3)CC2)C1 [Example 64] | 109 | 86 |
| O=C(C1CCNCC1)N1CCC(c2ccc(C(F)(F)F)nc2)CC1 [Example 40] | 29 | 8 |
| O=C([C@@H]1CCOC1)N1CCC(c2ccc(C(F)(F)F)nc2)CC1 [Example 26] | 26 | 33 |
| O=C(N1CCOCC1)N1CCC(c2ccc(C(F)(F)F)nc2)CC1 [Example 49, (Morpholin-4-yl){4-[6-(trifluoromethyl)pyridin-3-yl]piperidin-1-yl}methanone] | 13 | 18 |
| CC1(C(=O)N2CCC(c3ccc(C(F)(F)F)nc3)CC2)CNC1 [Example 33, (3-Methylazetidin-3-yl){4-[6-(trifluoromethyl)pyridin-3-yl]piperidin-1-yl}methanone] | 22 | 22 |
| CCC1(C(=O)N2CCC(c3cncc(C(F)(F)F)c3)CC2)COC1 [Example 6] | 97 | 81 |
